Measurements reported in the supplement of paper PMC8372320.

Experiment: photocatalytic hydrogen evolution rate (per 5 mg catalyst); higher = more photocatalytic H2 evolution; extreme values may be limits of the assay
Conditions: catalyst mass (mg): 5; Pt cocatalyst (wt%): 3; sacrificial medium: triethylamine/methanol/water 1:1:1
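Note: aromatic molecules in triethylamine/methanol/water with Pt photoreduced in situ, irradiated 3 h under a 1 sun AM 1.5G solar simulator (350–1000 nm), H2 quantified by headspace gas chromatography; listed molecule itself used as the photocatalyst at 5 mg per vial.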

Row | SMILES | photocatalytic hydrogen evolution rate [µmol/h]
1 | O=C1N=C(c2cccs2)c2c(O)[nH]c(-c3cccs3)c21 | 0
2 | Brc1nnc(Br)s1 | 0
3 | COc1cc(C=O)c(OC)cc1C=O | 1.37
4 | O=Cc1ccc2c(c1)c1ccccc1n2Cc1ccccc1 | 2.52
5 | Brc1ccc(-c2nc(-c3ccc(Br)cc3)nc(-c3ccc(Br)cc3)n2)cc1 | 0.0311
6 | O=c1c2ccccc2sc2ccccc12 | 14.6
7 | Nc1ccc(-c2cc(-c3ccc(N)cc3)cc(-c3ccc(N)cc3)c2)cc1 | 0
8 | O=C1c2ccc(O)cc2C(=O)c2ccc(O)cc21 | 2.69
9 | O=C(c1ccccc1)c1ccncc1 | 2.41
10 | c1ncncn1 | 0
11 | O=Cc1cc(O)cc(Cl)c1 | 0.000189
12 | COc1ccc(C=O)cc1O | 0
13 | ClCc1c2ccccc2c(CCl)c2ccccc12 | 0
14 | O=Cc1ccc(-n2c3ccccc3c3ccccc32)cc1 | 3.93
15 | Nc1cccc2c(N)cccc12 | 0
16 | CC1(C)c2cc(B3OC(C)(C)C(C)(C)O3)ccc2-c2ccc(B3OC(C)(C)C(C)(C)O3)cc21 | 0.0142
17 | c1ccc2[nH]ccc2c1 | 0
18 | N#Cc1ccc(C=O)nc1 | 0.139
19 | Brc1ccc(Br)cc1 | 0
20 | Cc1ccc(Nc2ccc(C)cc2)cc1 | 0.074
21 | O=C1C(O)=C(O)C(=O)C(O)=C1O | 0
22 | c1ccc2ccccc2c1 | 0

Row | SMILES | photocatalytic hydrogen evolution rate [µmol/h]
23 | COc1ccc(B(O)O)cc1 | 0
24 | O=C(n1ccnc1)n1ccnc1 | 0
25 | O=Cc1ccc(/C=C/c2ccccc2)cc1 | 0.017
26 | N#CC(C#N)=c1cc(F)c(=C(C#N)C#N)cc1F | 0
27 | c1ccc(-c2ccc(-c3nc(-c4ccc(-c5ccccc5)cc4)nc(-c4ccc(-c5ccccc5)cc4)n3)cc2)cc1 | 0.103
28 | COc1ccc(Nc2ccc(OC)cc2)cc1 | 0.055
29 | Nc1c(Br)cnc(Cl)c1Br | 0
30 | N#Cc1ccc(Br)cc1F | 0
31 | CCOC(=O)c1cncc(C(=O)OCC)c1 | 0.00607
32 | CC(=O)c1ccc(CCc2ccc(C(C)=O)cc2)cc1 | 0.387
33 | c1cn[nH]c1 | 0
34 | N#Cc1ccc(C=O)s1 | 0.0384
35 | N#Cc1csc(Br)n1 | 0
36 | c1ccc(-c2nc3ccccc3[nH]2)cc1 | 0
37 | c1ccc2cc3cc4ccccc4cc3cc2c1 | 0.162
38 | N#Cc1c(O)ccc(O)c1C#N | 0
39 | N#Cc1ncccc1Br | 0
40 | C#Cc1ccc(N)cc1 | 0
41 | O=Cc1cc(Br)ccc1Br | 0.957
42 | c1ccc(-c2cccc(-c3ccccn3)n2)nc1 | 0.17
43 | O=C1c2cccc3cccc(c23)C(=O)N1O | 0
44 | N#Cc1cccc(-c2cccc(C#N)n2)n1 | 0.0301

Row | SMILES | photocatalytic hydrogen evolution rate [µmol/h]
45 | N#Cc1c(-n2c3ccccc3c3ccccc32)c(C#N)c(-n2c3ccccc3c3ccccc32)c(-n2c3ccccc3c3ccccc32)c1-n1c2ccccc2c2ccccc21 | 20.5
46 | N#Cc1c(F)c(F)c(F)c(C#N)c1F | 0.386
47 | Oc1cccc2cccnc12 | 0
48 | O=C(O)c1cc(C(=O)O)cc(-c2cc(C(=O)O)cc(C(=O)O)c2)c1 | 0
49 | N#Cc1ccc2ccc(C#N)cc2c1 | 0.0489
50 | N#Cc1cccc(-c2ccc(N)cc2)c1 | 0
51 | Brc1c2c(c(Br)c3nsnc13)N=S=N2 | 0
52 | Nc1ccccc1C(=O)O | 0.00138
53 | COC(=O)c1ccc(C(=O)OC)c(N)c1 | 0.0112
54 | CC(C)(C)c1ccc(Nc2ccc(Nc3ccc(C(C)(C)C)cc3)c3c2C(=O)c2c(O)ccc(O)c2C3=O)cc1 | 0
55 | Cc1ncc[nH]1 | 0
56 | O=C1C=CC(=O)c2cc3ccccc3cc21 | 0
57 | Brc1cccc(-c2cccc(Br)n2)n1 | 0
58 | Cn1cnc(C#N)c1C#N | 0.0397
59 | COc1ccc(OC)c(C=O)c1 | 10.9
60 | Cc1cc(C=O)cc(C)c1O | 0.0076
61 | O=C1OC2(c3cc(Cl)c(O)cc3Oc3cc(O)c(Cl)cc32)c2ccccc21 | 25.2
62 | c1ccc(P(c2ccccc2)c2ccc3ccccc3c2-c2c(P(c3ccccc3)c3ccccc3)ccc3ccccc23)cc1 | 0
63 | O=C(O)c1c2ccccc2c(C(=O)O)c2ccccc12 | 0
64 | O=C1OC(=O)c2ccc3c4c(ccc1c24)C(=O)OC3=O | 0.0941
65 | Cc1cc(C)cc(-c2cc(C)cc(C)c2)c1 | 0
66 | Brc1cc2ccc3cc(Br)cc4ccc(c1)c2c34 | 0

Row | SMILES | photocatalytic hydrogen evolution rate [µmol/h]
67 | O=C1c2ccccc2C(=O)c2ccccc21 | 0
68 | O=C(O)c1ccc(-c2cc(-c3ccccn3)nc(-c3ccccn3)c2)cc1 | 0.441
69 | Nc1cccc2ccccc12 | 0
70 | N#CCC(=O)c1ccccc1 | 0
71 | O=Cc1ccc(Cl)c(O)c1 | 0
72 | c1ccc2nsnc2c1 | 0
73 | CC(C)(C)c1ccnc(-c2cc(C(C)(C)C)ccn2)c1 | 0.236
74 | O=C(O)[C@@H]1CCC(=O)N1C(=O)OCc1ccccc1 | 0
75 | N#CCc1ccc(-c2ccc(CC#N)cn2)nc1 | 0.0108
76 | Cc1cc(C#N)cnc1Br | 0
77 | CCc1ccc(C(=O)CC#N)cc1 | 0.0661
78 | Cn1cc(Br)nc(Br)c1=O | 0
79 | N#CCc1ccc(C=O)cc1 | 4.22
80 | Brc1sc(Br)c(Br)c1Br | 0
81 | N#Cc1ccc(C=O)cn1 | 0
82 | O=C(C(=O)c1ccccc1)c1ccccc1 | 0.736
83 | O=c1[nH]cc(Br)nc1Br | 0
84 | Fc1cc(Br)ccc1Br | 0
85 | COC(OC)(C(=O)c1ccccc1)c1ccccc1 | 1.18
86 | Brc1ccc(Br)c2ccccc12 | 0
87 | O=Cc1cccc(O)c1O | 0
88 | Nc1ccc(-c2c3nc(c(-c4ccc(N)cc4)c4ccc([nH]4)c(-c4ccc(N)cc4)c4nc(c(-c5ccc(N)cc5)c5ccc2[nH]5)C=C4)C=C3)cc1 | 0

Row | SMILES | photocatalytic hydrogen evolution rate [µmol/h]
89 | N#Cc1ccc(Br)cc1 | 0
90 | Oc1ccc2c(c1)Oc1cc(O)ccc1C21c2ccccc2-c2ccccc21 | 0
91 | c1ccc2c(c1)Nc1ccccc1O2 | 0
92 | Cc1cc(C#N)ccc1N | 0.0133
93 | C#Cc1cnc[nH]1 | 0
94 | O=C1OC(=O)c2ccc3c4ccc5c6c(ccc(c7ccc1c2c73)c64)C(=O)OC5=O | 0
95 | c1ccc(-c2nc(-c3ccccc3)nc(-c3ccc(-c4ccc(-c5nc(-c6ccccc6)nc(-c6ccccc6)n5)cc4)cc3)n2)cc1 | 0
96 | Brc1ccc(N(c2ccc(Br)cc2)c2ccc(Br)cc2)cc1 | 0.922
97 | Brc1ccc2c3ccc(Br)cc3c3ccccc3c2c1 | 0
98 | O=Cc1ccc2ncccc2c1 | 3.11
99 | Brc1cc(Br)c2[nH]c3c(Br)cc(Br)cc3c2c1 | 0.128
100 | Brc1ccc2c3ccc(Br)cc3n(-c3ccccc3)c2c1 | 0.0572
101 | O=c1c2ccccc2c2cc3c(=O)c4ccccc4c3cc12 | 0
102 | Nc1c(Br)cc2[nH]cnc2c1Br | 0
103 | N#Cc1ccc(Br)c(F)c1 | 0
104 | Cc1ccc(-c2ccc(C=O)cc2)cc1 | 3.39
105 | O=Cc1ccc(C#Cc2ccccc2)cc1 | 1.66
106 | C(C#Cc1ccccc1)#Cc1ccccc1 | 0
